{"source": "patent EP0339465A2", "about": "“Antibacterial composition for oral administration” (MEIJI SEIKA KAISHA LTD., priority 1988, dated 1989)", "assay": "Stability in aqueous solution", "format": "physicochemical", "settings": "aqueous solution of a pH value of 6 or above", "data": [{"smiles": "CO/N=C(\\C(=O)N[C@@H]1C(=O)N2C(C(=O)OCOC(=O)C(C)(C)C)=C(/C=C\\c3scnc3C)CS[C@H]12)c1csc(N)n1", "note": "[substance ME1207, pivaloyloxymethyl-(6R,7R)-7[(Z)-2-(2-aminothiazol-4-yl)-2-methoxyiminoacetamide]-3-[(Z)-2-(4-methylthiazol-5-yl)ethenyl]cephem-4-carboxylate]", "values": [{"measurement": "stability in an aqueous solution", "result": "unstable"}]}]}
